Measurements reported in patent publication US6066628A, “Non-iron metalloporphyrins and methods of use” (Emory University, priority 1998, dated 2000).
Read-outs that look alike come from different tables or passages of the source.

What was measured:
S. aureus [1] = experiment: Minimal bactericidal concentration; type: cell-based, Staphylococcus aureus; settings: reduces plating efficiency more than 99.9%; minimal exposure to light
Method in brief: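 Bacteria exposed to porphyrin derivatives above MIC as in the MIC assay, then plated on LB or LB+Tween 80 agar. MBC taken as the concentration reducing plating efficiency by more than 99.9%; light exposure kept minimal.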

F. menigosepticum = experiment: Disc diffusion sensitivity test; type: cell-based, Flavobacterium meningosepticum
Staphylococcus carnosus = experiment: Disc diffusion sensitivity test; type: cell-based; settings: 50 μg disc
S. aureus [2] = type: cell-based, Staphylococcus aureus
Bacillus subtilis = experiment: Minimal inhibitory concentration; type: cell-based
L. monocytogenes = experiment: Minimal inhibitory concentration; type: cell-based; settings: 20 to 24 hours (Table 5)
N. gonorrhoeae = experiment: Minimal inhibitory concentration; type: cell-based, Neisseria gonorrhoeae; settings: N. gonorrhoeae MS111; 20 to 24 hours (Table 5)
S. marcescens = experiment: Disc diffusion sensitivity test; type: cell-based, Serratia marcescens
K. oxytoca = experiment: Disc diffusion sensitivity test; type: cell-based, Klebsiella oxytoca
S. aureus [3] = tested on: S. aureus
E. aerogenes = experiment: Disc diffusion sensitivity test; type: cell-based, Enterobacter aerogenes
M. tuberculosis = type: cell-based, Mycobacterium tuberculosis
bacteria = type: cell-based
Y. enterocolitica [4] = experiment: Disc diffusion sensitivity test; type: cell-based; settings: disc ~50 μg MP
Y. pseudotuberculosis = type: cell-based
[5] = tested on: methicillin resistant S. aureus IR2419; type: cell-based, Staphylococcus aureus; settings: 1 μg/ml, below the MIC value
E. coli = type: cell-based, Escherichia coli
H. pylori ATCC 43504 = experiment: Minimal inhibitory concentration; type: cell-based, Helicobacter pylori; settings: H. pylori ATCC 43504 (Table 5)
M tuber. H37Rv = experiment: Disc diffusion sensitivity test; type: cell-based, Mycobacterium tuberculosis; settings: disc ~50 μg MP
Y. enterocolitica [6] = experiment: Minimal bactericidal concentration; type: cell-based; settings: reduces plating efficiency more than 99.9%; minimal exposure to light
E. faecalis = experiment: Disc diffusion sensitivity test; type: cell-based, Enterococcus faecalis; settings: disc ~50 μg MP; further: key: -: resistant; N: not determined
B. subtilis = experiment: Disc diffusion sensitivity test; type: cell-based, Bacillus subtilis; settings: B. subtilis; disc ~50 μg MP
M. bovis = type: cell-based, Mycobacterium bovis; settings: disc ~50 μg MP
M. smegmatis LR222 = experiment: Growth kinetics with Ga-PPIX; type: cell-based, Mycobacterium smegmatis; settings: 1 μg/ml
mice = experiment: Preliminary toxicity testing on animals; type: in vivo
Protocol: To test for toxicity of MPs for mammalian cells, semiconfluent monolayers of four cell lines (MRC-5 primary human fibroblasts, Vero cells, MDCK cells and CaCO-2 cells) were incubated for 24 to 48 hours in the presence of 5, 25, 50, 250 and 400 μg/ml of Ga-PPIX dissolved in 0.02 M NaOH.
Two mice were each injected intraperitoneally with 0.5 mg gallium protoporphyrin IX and observed for 7 days. […] The animals were sacrificed, and their internal organs were microscopically examined for signs of inflammation.

Neisseria meningitidis = experiment: Minimal inhibitory concentration; type: cell-based

SMILES: C=CC1=C(C)C2=Cc3c(C=C)c(C)c4[n]3[Ga][n]3c(c(C)c(CCC(=O)O)c3=CC3=NC(=C4)C(C)=C3CCC(=O)O)=CC1=N2 [Ga-PPIX, Gallium (III) protoporphyrin IX chloride]
- Minimal bactericidal concentration (MBC) (S. aureus [1]): > 13
- diameter (mm) of the inhibition zone (F. menigosepticum; F. meningosepticum, disc ~50 μg MP): 22 mm
- sensitive strains / strains tested (inhibition zones larger or equal 20 mm) (F. menigosepticum; Flavobacterium meningosepticum, 50 μg disc): 1/1
- sensitive strains / strains tested (inhibition zones larger or equal 20 mm) (Staphylococcus carnosus): 1/1
- MIC in Muller-Hinton broth versus NB broth (S. aureus [2]; Muller-Hinton broth): did not differ significantly
- lower MIC in low iron media (S. aureus [2]; NBD with 0.1 mM dipyridyl): 2 fold
- MIC (S. aureus [2]; S. aureus 8325-4 (Table 4)): < 0.1 µg/mL
- MIC (S. aureus [2]; S. aureus 8325-4 (Table 6), in µg/mL): 1-2
- MIC (S. aureus [2]; S. aureus 8325-4, 20 to 24 hours (Table 5)): 1 to 2 µg/mL
- MIC (S. aureus [2]; S. aureus IR2419, dark (Table 10)): 1.6 µg/mL
- Minimal inhibitory concentration (MIC) (S. aureus [2]; methicillin-resistant S. aureus IR219, Nutrient broth (Table 2)): 1.6 mg/L
- MIC (Bacillus subtilis; B. subtilis 3G18, 20 to 24 hours (Table 5)): 0.2 mg/L
- MIC (Bacillus subtilis; Bacillus subtilis (Table 4)): < 0.1 mg/L
- MIC (L. monocytogenes): 0.2 mg/L
- MIC (N. gonorrhoeae): 0.1 mg/L
- diameter (mm) of the inhibition zone (S. marcescens; S. marcescens, disc ~50 μg MP): 23 mm
- sensitive strains / strains tested (inhibition zones larger or equal 20 mm) (S. marcescens; Serratia marcescens, 50 μg disc): 2/3
- diameter (mm) of the inhibition zone (K. oxytoca; K. oxytoca, disc ~50 μg MP): 21 mm
- sensitive strains / strains tested (inhibition zones larger or equal 20 mm) (K. oxytoca; Klebsiella oxytoca, 50 μg disc): 1/1
- spontaneous resistance (S. aureus [3]): did not produce spontaneous resistant mutants
- diameter (mm) of the inhibition zone (E. aerogenes; E. aerogenes, disc ~50 μg MP): 22 mm
- sensitive strains / strains tested (inhibition zones larger or equal 20 mm) (E. aerogenes; Enterobacter aerogenes, 50 μg disc): 1/1
- MIC (M. tuberculosis; M. tuberculosis Rv (Table 5)): 4 mg/L
- sensitivity (preliminary experiments) (M. tuberculosis; pathogenic M. tuberculosis): sensitive
- antibacterial activity (bacteria): widest spectrum and the highest level of antibacterial activity
- diameter (mm) of the inhibition zone (Y. enterocolitica [4]): 28 mm
- MIC (Y. pseudotuberculosis; Y. pseudotuberculosis YP66 (Table 4)): < 0.1 µg/mL
- MIC (Y. pseudotuberculosis; Y. pseudotuberculosis YP66 (Table 6), in µg/mL): 0.2-0.4
- growth in presence of Ga-PPIX [5]: inhibited growth of S. aureus in the first 20 hours of growth
- MIC (E. coli; E. coli DH-5 alpha hemA (Table 6)): > 10 mg/L
- sensitivity (E. coli; E. coli K-12 (hemPR+) wild type and hemA mutant, with delta-aminolevulinic acid): fully sensitive
- TonB dependence of inhibition (E. coli; E. coli TonB mutant overexpressing HemR): TonB activity is necessary
- MIC (E. coli; E. coli dh-5 alpha hemA(hemR+) (Table 6)): < 0.1 mg/L
- MIC Ga-PPIX (E. coli; EC06 (MC1061, ΔccmABCDEFGH), NB): > 20 mg/L
- MIC Ga-PPIX (E. coli; EC06 (MC1061, ΔccmABCDEFGH), NBD[50 μM]): > 20 mg/L
- MIC Ga-PPIX (E. coli; GO103 (GR70N, ΔcydAB), NB): 10 mg/L
- MIC Ga-PPIX (E. coli; GO103 (GR70N, ΔcydAB), NBD[50 μM]): 6.4 mg/L
- MIC Ga-PPIX (E. coli; GP104 (GR70N, ΔcyoABCDE), NB): 10 mg/L
- MIC Ga-PPIX (E. coli; GP104 (GR70N, ΔcyoABCDE), NBD[50 μM]): 10 mg/L
- MIC Ga-PPIX (E. coli; GR70N w.t., NB): 10 mg/L
- MIC Ga-PPIX (E. coli; GR70N w.t., NBD[50 μM]): 10 mg/L
- MIC Ga-PPIX (E. coli; IR2885 (GO104 [phemR+]), NB): < 0.2 mg/L
- MIC Ga-PPIX (E. coli; IR2885 (GO104 [phemR+]), NBD[50 μM]): < 0.02 mg/L
- MIC Ga-PPIX (E. coli; IR2897 (GR70N [phemR+]), NB): > 10 mg/L
- MIC Ga-PPIX (E. coli; IR2897 (GR70N [phemR+]), NBD[50 μM]): < 0.1 mg/L
- MIC Ga-PPIX (E. coli; IR2898 (GO103 [phemR+]), NB): < 0.2 mg/L
- MIC Ga-PPIX (E. coli; IR2898 (GO103 [phemR+]), NBD[50 μM]): < 0.02 mg/L
- MIC Ga-PPIX (E. coli; IR2899 (MWC215 [phemR+]), NB): > 10 mg/L
- MIC Ga-PPIX (E. coli; IR2899 (MWC215 [phemR+]), NBD[50 μM]): < 0.1 mg/L
- MIC Ga-PPIX (E. coli; IR2976 (EC06 [phemR+]), NB): > 30 mg/L
- MIC Ga-PPIX (E. coli; IR2976 (EC06 [phemR+]), NBD[50 μM]): 0.5 mg/L
- MIC Ga-PPIX (E. coli; MWC215 (GR70N, ndh), NB): 10 mg/L
- MIC Ga-PPIX (E. coli; MWC215 (GR70N, ndh), NBD[50 μM]): 10 mg/L
- higher MIC under iron-sufficient growth conditions (E. coli; all other mutants): 50 fold
- sensitivity without an iron chelator (E. coli; cytochrome cd and cyo single mutants): still sensitive
- sensitivity concentration of HemR-plasmid strains (E. coli; slight iron restriction (0.05 mM dipyridyl)): less than 0.5 μg/ml
- MIC (H. pylori ATCC 43504): 0.2 mg/L
- diameter (mm) of the inhibition zone (M tuber. H37Rv): 20 mm
- Minimal bactericidal concentration (MBC) (Y. enterocolitica [6]): 6.4
- spontaneous resistance (M. smegmatis): did not produce spontaneous resistant mutants
- diameter (mm) of the inhibition zone (E. faecalis): -
- diameter (mm) of the inhibition zone (B. subtilis): 24 mm
- diameter (mm) of the inhibition zone (M. bovis): 35 mm
- growth in presence of Ga-PPIX (M. smegmatis LR222): completely prevented growth
- behavior, eating habits, stress, general condition (mice; 0.5 mg intraperitoneally, 7 days): No change in behavior, eating habits and/or apparent stress or general condition were recorded
- inflammation of internal organs (mice; 0.5 mg intraperitoneally, 7 days, microscopy): No visible indications of inflammation were observed
- peracute or acute effect on health and behavior (mice; single intraperitoneal dose of 25 mg/kg): does not cause any peracute or acute effect on the health and behavior of mice
- MIC (Neisseria meningitidis; N. meningitidis IR1072, 20 to 24 hours (Table 5)): 0.1 mg/L
- MIC (Neisseria meningitidis; Neisseria meningitidis (Table 4)): < 0.1 mg/L
